Experiments:
[1] = Fluorescent imaging in vivo and in vitro; assay type: physicochemical; conditions: 60 mg/kg body weight/0.2 ml
Description: Fluorescent images and wavelength ranges of the compounds as obtained in embodiments 1-7 were determined according to the literature method (Chen Y, et al., 2-(3-{1-Carboxy-5-[(6-[18F]fluoro-pyridine-3-carbonyl)-amino]-pentyl}-ureido)-pentanedioic acid, [18F]DCFPyL, a PSMA-based PET imaging agent for prostate cancer. Clin Cancer Res, 2011, 17(24):7645-53), and the results were shown in Table 3 and FIG. 1.
2. Experimental procedure: For in-vitro fluorescent imaging and detection: the compounds Ia-Ih as obtained in embodiments 1-7 were prepared in 1.5 ml plastic centrifugal tubes into a solution with the concentration of 60 mg/0.2 ml, fluorescent signals and images were respectively detected and recorded with a multifunctional microplate reader and an animal in-vivo imaging instrument under the following excitation and emission wavelength conditions, and the obtained results were shown in Table 3 and FIG. 1 (small test tube photos); and for the detection of fluorescent images in-vivo: after 16 h of fasting treatment of the experimental animals (while drinking water was normally supplied), solutions of the compounds Ia-Ih as obtained in embodiments 1-7 were prepared according to a concentration of 60 mg/kg body weight/0.2 ml, and intraperitoneally administered to the animal, the fluorescent images were detected and recorded with the animal in-vivo imaging instrument under the following excitation and emission wavelength conditions, the obtained results were shown in FIG. 1 (animal in-vivo imaged photos); wherein, the experimental excitation wavelength range was 360 nm-590 nm; and the detection wavelength range was 410 nm-700 nm.

[2] = tested on: human liver cancer cells SMMC7721; test: MTT growth inhibition, SMMC7721 cells; assay type: cell-based; conditions: SMMC-7721, S-7721 (SMMC7721), 72 h after treatment, read-out: Drug concentration (IC50) at which 50% cancer cells survived
Source text: Cell lines and cell culture: human lung cancer cells A549 and H460, human breast cancer cells MCF-7 and MDA-MB-231, human gastric cancer cells BGC-823, human prostate cancer cells PC-3, human chronic leukemia cells K562, human lymphoma cells U937, human liver cancer cells SMMC7721 and HepG2, human colon cancer cells HT29, human pancreatic cancer cells PANC-1 and BxPC3, human cervical cancer Hela cell lines, human brain tumor cells Daoy, human neuroma cells D54 and human oral epidermoid cancer cells KBV200 line with strong drug resistance, mouse melanoma cells B16, and highly metastatic Lewis lung cancer cell lines were purchased from American Type Culture Collection of the U.S. These cells were cultured with DMEM and RPMI-1640 culture solutions separately.
The procedure was as follows:
(1) 0.25% trypsin was used to digest cancer cells in a logarithmic growth phase to prepare a single-cell suspension, the concentration of cells was adjusted to 5×10^4/mL, and the adjusted suspension was inoculated into a 96-well culture plate with 100 μl per well;
(2) The culture plate was transferred into a 37° C. incubator with a saturated humidity and 5% of CO2 and cultured for 24 h; the compounds and the intermediates thereof obtained in embodiments 1-7 and the compound as represented by formula (IIIa) or the positive control anti-cancer drug with the concentration of 1-1000 μM/L were added to enable the final concentration to be 0.1-1500 μM/L. Control wells (only added with 200 μl of cell suspension) and drug-free blank control wells (containing the solvent of 0.01% DMSO) were set, each group included 8 wells, and the plate was placed into the 37° C. incubator with saturated humidity and 5% of CO2 for culturing;
(3) The 96-well plate was taken out at 48 h and 72 h after dosing, the original culture medium was carefully removed by suction, 100 μl of serum-free DMEM culture medium and 10 μl of MTT (5 mg/mL) solution were added in each well. The plate was continuously cultured for another 4 h and then the culture was terminated;
(4) The supernatant in the wells was carefully removed by suction, each well was added with 150 μl of DMSO and shaked at room temperature for 10-15 min to fully dissolve crystals.
(5) Colorimetric analysis: the wavelength was selected as 570 nm, the light absorbance (A value) of each well was determined on the microplate reader and the results were recorded; the experiment was repeated for three times;
(6) the experimental results were calculated according to the following formula: relative survival rate=(A value of each experimental group/A value of cell control group)×100%
Calculation of median-effect concentration (IC50, namely the drug concentration at which the inhibition rate is 50%, also known as half inhibitory concentration):
IC50 of the detected component was calculated by using a regression equation.

Nuclear β-catenin = test: Western Blotting, nuclear β-catenin level; assay type: cell-based; conditions: human liver cancer cells, Lewis lung cancer cells and other cancer cell lines and tumor tissues, read-out: Effective concentration (IC50) for inhibition of Nuclear β-catenin
Source text: (§1) Antibodies: primary antibodies of VEGFR, EGFR, c-Met, K-Ras, H-Ras, Akt, NF-κB, Cyclin D1, ER-alpha, Dvl-1, Dvl-2, Dvl-3, MMP-9, MMP2, β-catenin, Bcl-2, Bax, p53, p21, E-cadherin and Caspase3 protein, purchased from American Cell Signaling Technology Company and Santa Cruz Technology Company; and H3 acetylation, H4 acetylation and HDAC (HDAC3, HDAC4 and the like) Antibody Sample Kits, purchased from Cell Signaling Technology Company of the U.S.
(§2) (3) polyacrylamide gel electrophoresis (SDS-PAGE): an equal amount of protein lysate sample was used to separate protein, film transfer, and blocking, treated with appropriate primary antibodies and secondary antibodies in sequence, and the film was washed, then the color was developed with ECL kit, and a blot protein band was detected by exposure of an X-ray film; and a Gel-Pro Analyzer was used for quantitative analysis of gray degree, optical density value of the control group and the drug treatment group in various concentration were respectively compared with that of internal reference, the obtained ratios were respectively compared with the control group, and the protein expression level was semi-quantified.

[3] = tested on: human liver cancer cells SMMC7721 xenograft; test: In-vivo growth of SMMC7721 xenografts in nude mice; parameters: species or system BALB/c nude mice; conditions: Mus musculus, SMMC-7721, ip, S-7721 xenograft, vs DMSO solvent control, read-out: Curative effect (inhibition rate %) of tumor weight; for inhibition in vivo at 60 mg/kg: 60 mg/kg intraperitoneal once a day; for inhibition in vivo at 90 mg/kg: 90 mg/kg intraperitoneal once a day
Description: RPMI1640 and DMEM culture solutions: Hyclone Company; inactivated fetal bovine serum: Hyclone Company, preserved at −20° C.; trypsin: Amersco Company; and 0.4% trypan blue: Sigma Company;
(3) Observation of growth of tumors in nude mice: the activities (including food intake, traits of urine and stool, mental state and the like) of the nude mice and the tumor growth time and growth situation of the transplanted tumors were observed every day, the body weight and the size of the tumors were measured once every 2-3 days. The long diameter a and the short diameter b (mm) of each tumor were measured by a vernier caliper to calculate the volume, wherein the volume V=π1/2·ab^2 (mm^3);
(4) sacrifice of animals: the mice were anesthetized and photoed after treatment experiments; the nude mice were sacrificed by breaking neck, the tumor tissues were stripped under sterile conditions and the weight of the tumors was weighed; and the effects of the drugs on pathology and toxicity of the various organs and tissues were detected.

Caspase3 = test: Western Blotting, increase of Caspase3 level; assay type: cell-based; conditions: liver cancer cells, Lewis lung cancer cells and other cancer cell lines and tumor tissue protein lysates, 48 h treatment, read-out: Effective concentration to increase Caspase-3 by 50%
Source text: as §1, §2

Which “Emission (fluorescent wavelength range detectable in vivo and in vitro)” value (“Emission” below) [1] does the source give for `CCNC(=O)CC[C@@H](NC(=O)c1cc2cc(Br)ccc2oc1=O)C(=O)OCC` [Compound Id, (R)-2-(6-Br-2-oxo-2H-benzopyran-3-carboxamido)-5-ethylamino-5-oxo-pentanoic acid ethyl ester] here?
The value was 430-670 nm.

And the “Excitation (fluorescent wavelength range detectable in vivo and in vitro)” value (from here on “Excitation”) [1]?
The value was 36-610 nm.

And the IC50 [2]?
Its IC50 is 65 µM.

What about the IC50 (Nuclear β-catenin) of the same molecule?
Its IC50 is < 100 µM.

What about the inhibition in vivo at 60 mg/kg [3] of the same molecule?
Its inhibition in vivo at 60 mg/kg is 67.2%.

And the inhibition in vivo at 90 mg/kg [3]?
The inhibition in vivo at 90 mg/kg was 75.7%.

What about the EC50 (Caspase3) of the same molecule?
The EC50 was < 100 µM.

For `CCNC(=O)CC[C@H](N)C(=O)OC` [Compound IIa, theanine methyl ester], which IC50 [2] is on record?
Its IC50 is 230 µM.

What about the inhibition in vivo at 60 mg/kg [3] of the same molecule?
The inhibition in vivo at 60 mg/kg was 36.6%.

And the inhibition in vivo at 90 mg/kg [3]?
Its inhibition in vivo at 90 mg/kg is 38.2%.

What does the source list for `CCNC(=O)CC[C@@H](NC(=O)c1cc2cc(Cl)ccc2oc1=O)C(=O)OCC` [Compound Ic, (R)-2-(6-CI-2-oxo-2H-benzopyran-3-carboxamido)-5-ethylamino-5-oxo-pentanoic acid ethyl ester]?
Emission (fluorescent wavelength range detectable in vivo and in vitro) [1]: 430-670 nm; Excitation (fluorescent wavelength range detectable in vivo and in vitro) [1]: 360-610 nm; IC50 [2]: 75 µM; IC50 (Nuclear β-catenin): < 100 µM; inhibition in vivo at 60 mg/kg [3]: 63.2%; inhibition in vivo at 90 mg/kg [3]: 69.2%; EC50 (Caspase3): < 100 µM

For `CCNC(=O)CC[C@@H](NC(=O)c1cc2cc(Cl)cc(Cl)c2oc1=O)C(=O)OCC` [Compound Ig, (R)-2-(6,8-dichloro-2-oxo-2H-benzopyran-3-carboxamido)-5-ethylamino-5-oxo-pentanoic ethyl ester], which “Emission” value [1] is on record?
The value was 430-690 nm.

And the “Excitation” value [1]?
Its value is 360-610 nm.

What about the IC50 [2] of the same molecule?
Its IC50 is 78 µM.

What about the IC50 (Nuclear β-catenin) of the same molecule?
Its IC50 is < 100 µM.

And the inhibition in vivo at 60 mg/kg [3]?
Its inhibition in vivo at 60 mg/kg is 53.6%.

And the inhibition in vivo at 90 mg/kg [3]?
The inhibition in vivo at 90 mg/kg was 70.6%.

What about the EC50 (Caspase3) of the same molecule?
The EC50 was < 70 µM.

Which “Emission” value [1] does the source give for `CCNC(=O)CCC(NC(=O)c1cc2cc([N+](=O)[O-])ccc2oc1=O)C(=O)OCC` (stereo in doubt) [Compound If, (R)-2-(6-nitro-2-oxo-2H-benzopyran-3-carboxamido)-5-ethylamino-5-oxo-pentanoic acid ethyl ester] here?
The value was 430-650 nm.

And the “Excitation” value [1]?
The value was 360-610 nm.

And the IC50 [2]?
Its IC50 is 61 µM.

What about the IC50 (Nuclear β-catenin) of the same molecule?
The IC50 was < 90 µM.

And the inhibition in vivo at 60 mg/kg [3]?
The inhibition in vivo at 60 mg/kg was 65.7%.

What about the inhibition in vivo at 90 mg/kg [3] of the same molecule?
Its inhibition in vivo at 90 mg/kg is 75.7%.

What about the EC50 (Caspase3) of the same molecule?
The EC50 was < 80 µM.

What does the source list for `CCNC(=O)CCC(NC(=O)c1cc2ccccc2oc1=O)C(=O)OCC` (centres unmarked) [Compound Ib, ethyl 5-ethylamino-5-oxo-2-(2-oxo-2H-benzopyran-3-carboxamido)pentanoate]?
Emission (fluorescent wavelength range detectable in vivo and in vitro) [1]: 430-650 nm; Excitation (fluorescent wavelength range detectable in vivo and in vitro) [1]: 360-610 nm; IC50 [2]: 17 µM; IC50 (Nuclear β-catenin): < 120 µM; inhibition in vivo at 60 mg/kg [3]: 60.8%; inhibition in vivo at 90 mg/kg [3]: 66.6%; EC50 (Caspase3): < 120 µM

Which “Emission” value [1] does the source give for `CCNC(=O)CCC(NC(=O)c1cc2cc(F)ccc2oc1=O)C(=O)OCC` (stereo in doubt) [Compound Ie, (R)-2-(6-F-2-oxo-2H-benzopyran-3-carboxamido)-5-ethylamino-5-oxo-pentanoic acid ethyl ester] here?
Its value is 430-650 nm.

And the “Excitation” value [1]?
The value was 360-610 nm.

What about the IC50 [2] of the same molecule?
The IC50 was 61 µM.

What about the IC50 (Nuclear β-catenin) of the same molecule?
Its IC50 is < 65 µM.

What about the inhibition in vivo at 60 mg/kg [3] of the same molecule?
Its inhibition in vivo at 60 mg/kg is 64.8%.

What about the inhibition in vivo at 90 mg/kg [3] of the same molecule?
Its inhibition in vivo at 90 mg/kg is 69.9%.

And the EC50 (Caspase3)?
Its EC50 is < 100 µM.

For `CCNC(=O)CC[C@H](N)C(=O)OCC` [Compound IIb, theanine ethyl ester], which IC50 [2] is on record?
Its IC50 is 400 µM.

What about the inhibition in vivo at 60 mg/kg [3] of the same molecule?
The inhibition in vivo at 60 mg/kg was 44.6%.

And the inhibition in vivo at 90 mg/kg [3]?
Its inhibition in vivo at 90 mg/kg is 46.8%.

What does the source list for `CCNC(=O)CC[C@@H](NC(=O)c1cc2cc(Br)cc(Br)c2oc1=O)C(=O)OCC` [Compound Ih, (R)-2-(6,8-dibromo-2-oxo-2H-benzopyran-3-carboxamido)-5-ethylamino-5-oxo-pentanoic ethyl ester]?
Emission (fluorescent wavelength range detectable in vivo and in vitro) [1]: 430-690 nm; Excitation (fluorescent wavelength range detectable in vivo and in vitro) [1]: 360-610 nm; IC50 [2]: 86 µM; IC50 (Nuclear β-catenin): < 100 µM; inhibition in vivo at 60 mg/kg [3]: 57.7%; inhibition in vivo at 90 mg/kg [3]: 78.7%; EC50 (Caspase3): < 70 µM

For `CCNC(=O)CCC(NC(=O)c1cc2ccccc2oc1=O)C(=O)OC` (centres unmarked) [Compound Ia, methyl 5-ethylamino-5-oxo-2-(2-oxo-2H-benzopyran-3-carboxamido)pentanoate], which “Emission” value [1] is on record?
Its value is 430-650 nm.

What about the “Excitation” value [1] of the same molecule?
Its value is 360-610 nm.

What about the IC50 [2] of the same molecule?
Its IC50 is 75 ± 30 µM.

And the IC50 (Nuclear β-catenin)?
Its IC50 is < 120 µM.

What about the inhibition in vivo at 60 mg/kg [3] of the same molecule?
Its inhibition in vivo at 60 mg/kg is 52.7%.

And the inhibition in vivo at 90 mg/kg [3]?
The inhibition in vivo at 90 mg/kg was 61.9%.

What about the EC50 (Caspase3) of the same molecule?
The EC50 was < 125 µM.
